US20030171377A1, “Antidiabetic agents” (priority 2001, published 2003)

What was measured:
[1] = tested on: endogenous nuclear receptors in CV-1 cells; assay: CV-1 Native Receptors Transcription Assay (MKNRCV1), Test C; type: cell-based, African green monkey; details: for MKNRCV1 % BRL @ 5 μM: 5 μM (stated in the cell); for MKNRCV1 % BRL @ 5 μM / MKNRCV1 % BRL @ 25 μM: percent activity of BRL 49653; for EC50: Chlorocebus sabaeus, CV-1 cells, 48 hours, unit inferred
[2] = tested on: CV-1 cells (FATP promoter luciferase reporter, 300 nM BRL); assay: ANTCV1 Antagonist Transcription Assay, Test B; type: cell-based, African green monkey; details: Chlorocebus sabaeus, 25 μM test compound with 300 nM BRL, 48 hrs, % BRL inhibition, read-out: ANTCV1 INHIB @ 25 μM
3T3-L1 preadipocytes = assay: 3T3-L1 Adipocyte Differentiation Assay (ADPDIFF), Test A; type: cell-based; details: BODIPY lipid fluorescence, reported as % of BRL 49653 at 5 μM
Method: Cells are replenished with FBS containing media on day 5 of post-drug treatment and incubated for additional 4-6 days. Cells are stained with BODIPY a fluorescent lipophilic stain to quantitate the lipid content of the cells. The assay is optimized for a 96-well plate format. Approximately after 10 days of post-drug treatment, cells are fixed in 3% formalin solution for 15 min followed by staining with BODIPY (80 μg/ml) for 20 min at room temperature. The plate is then put through the CYTOFLUOR instrument to measure the fluorescence of BODIPY (excitation=485/20; emission=530/25).

SMILES	MKNRCV1 % BRL @ 5 μM [1]	EC50 [1]	inhibition at 25 µM [2]	ADPDIFF % BRL @ 5 μM (3T3-L1 preadipocytes)	MKNRCV1 % BRL @ 25 μM [1]
Cc1oc(-c2ccccc2)nc1CC#Cc1ccc(CC(C(=O)O)c2ccc(-c3ccccc3)cc2)cc1 (stereo not drawn)	86 @ 5 μM % BRL	2700 nM	-21%		
CN(CCOc1ccc(C[C@@H](C(=O)O)n2cccc2)cc1)c1ccnc2cc(Cl)ccc12			-87%	1 % BRL	83 % BRL
CN(C/C=C/c1ccc(C[C@@H](C(=O)O)n2cccc2)cc1)c1ccccc1		1700 nM	-29%		79 % BRL
O=C(O)[C@H](Cc1ccc(OCCc2ccccc2C(F)(F)F)cc1)n1cccc1		400 nM	-27%	112 % BRL	80 % BRL
O=C(O)[C@H](Cc1ccc(OCCN2CCN(c3ccccc3)CC2)cc1)n1cccc1			-40%	82 % BRL	32 % BRL
Cc1cc(-c2cc(O)c(Sc3cccc(C(=O)O)c3)oc2=O)ccc1OCc1ccccc1	26 @ 5 μM % BRL		-29%		
Cc1ccc(-c2ccccc2)n1[C@@H](Cc1ccc(OCc2ccccc2F)cc1)C(=O)O			-44%	2 % BRL	30 % BRL
CN(CCOc1ccc(CC(C(=O)O)n2ccc(-c3ccccc3)c2)cc1)c1nc2ccccc2o1 (stereo not drawn)			-41%	113 % BRL	59 % BRL
Cc1oc(-c2ccccc2)nc1CCOc1ccc([C@@H](C(=O)O)n2cccc2)cc1	47 % BRL	3600 nM	39%		57 % BRL
Cc1oc(-c2ccccc2)nc1CCC(=O)c1ccc(CC(C(=O)O)n2cccc2)cc1 (stereo not drawn) [drawing 276]				3 % BRL	
Cc1oc(-c2ccccc2)nc1CCOc1ccc(CC(C(=O)O)c2ccncc2)cc1 (stereo not drawn)			55%	2 % BRL	20 % BRL
Cc1oc(-c2ccccc2)nc1CCOc1ccc(CC(C(=O)O)n2ccc(C(=O)C3CCCCC3)c2)cc1 (stereo not drawn)		4700 nM	-12%	82 % BRL	83 % BRL
O=C(O)[C@H](Cc1ccc(OCc2ccccc2F)cc1)n1cccc1C(=O)C(F)(F)F			28%	14 % BRL	18 % BRL
Cc1oc(-c2ccccc2)nc1CCOc1ccc(C[C@@H](C(=O)O)n2cccc2)cc1	83 @ 5 μM % BRL				
CC(=O)c1cc(C)n([C@@H](Cc2ccc(OCCc3oc(-c4ccccc4)nc3C)cc2)C(=O)O)c1C			-15%	0 % BRL	27 % BRL
O=C(c1ccn(C(Cc2ccc(OCc3ccccc3F)cc2)C(=O)O)c1)C1CCCCC1 (stereo not drawn)			1%	12 % BRL	28 % BRL
Cc1oc(-c2ccccc2)nc1CCOc1ccc(C[C@@H](C(=O)O)n2c(C)cc(C(=O)C(F)(F)F)c2C)cc1		16000 nM	12%	2 % BRL	28 % BRL
Cc1oc(-c2ccccc2)nc1CCOc1ccc(CC[C@@H](C(=O)O)n2cccc2)cc1	82 @ 5 μM % BRL	1300 nM	62%		

SMILES	MKNRCV1 % BRL @ 5 μM [1]	EC50 [1]	inhibition at 25 µM [2]	ADPDIFF % BRL @ 5 μM (3T3-L1 preadipocytes)	MKNRCV1 % BRL @ 25 μM [1]
CC(=O)c1c(C(C)=O)c(C)n([C@@H](Cc2ccc(OCCc3nc(-c4ccccc4)oc3C)cc2)C(=O)O)c1C			3%	0 % BRL	24 % BRL
Cc1oc(-c2ccccc2)nc1CCOc1ccc(CC(C(=O)O)c2ccccc2)cn1 (stereo not drawn) [drawing 309]	75 @ 5 μM % BRL		-58%		
COC(=O)[C@H](Cc1ccc(/C=C/CN(C)c2ccccc2)cc1)n1cccc1		700 nM	2%	110 % BRL	96 % BRL
O=C(O)[C@H](Cc1ccc(C#CCN2CCC(c3ccccc3)CC2)cc1)n1cccc1 [drawing 288]		1300 nM	-42%	112 % BRL	78 % BRL
Cc1cc(OCCc2nc(-c3ccccc3)oc2C)ccc1CC(C(=O)O)c1ccccc1 (stereo not drawn)		1000 nM			
Cc1ccc(C)n1[C@@H](Cc1ccc(OCc2ccccc2F)cc1)C(=O)O				2 % BRL	34 % BRL
Cc1oc(-c2ccccc2)nc1CCNc1ccc(C[C@@H](C(=O)O)n2cccc2)cc1					157 % BRL
Cc1oc(-c2ccccc2)nc1CC#Cc1ccc(CC(C(=O)O)c2cccnc2)cc1 (stereo not drawn)	49 @ 5 μM % BRL	34000 nM	-15%		
Cc1oc(-c2ccccc2)nc1C/C=C/c1ccc(C[C@@H](C(=O)O)n2cccc2)cc1				76 % BRL	94 % BRL
Cc1oc(-c2ccccc2)nc1CCOc1ccc(CC(C(=O)O)c2nc(-c3ccccc3)oc2C)cc1 (stereo not drawn) [drawing 261]	110 @ 5 μM % BRL		18%		
Cc1nc(-c2ccc(C(F)(F)F)cc2)sc1CSc1ccc(OCC(=O)O)cc1			-58%		70 % BRL
CN(CCCc1ccc(C[C@@H](C(=O)O)n2cccc2)cc1)c1ccccn1				113 % BRL	64 % BRL
Cc1oc(-c2ccccc2)nc1CCCc1ccc(CC(C(=O)O)c2ccccc2)cc1 (stereo not drawn)					0.1122 % BRL
Cc1oc(-c2ccccc2)nc1CCOc1ccc(CC(C(=O)O)c2ccccc2)cn1 (stereo not drawn) [drawing 262]		1200 nM			
Cc1oc(-c2ccccc2)nc1CC#Cc1ccc(CC(C(=O)O)c2cccc(-c3ccccc3)c2)cc1 (stereo not drawn)	48 @ 5 μM % BRL		-3%		
Cc1oc(-c2ccccc2)nc1CCOc1ccc(C[C@H](C(=O)O)n2cccc2)cc1	87 @ 5 μM % BRL			96 % BRL	
Cc1oc(-c2ccccc2)nc1CCOc1ccc([C@@H](C(=O)O)n2cccc2C(=O)c2ccccc2)cc1	39 % BRL		-5%		58 % BRL
